# From US20010012846A1, “Quinoline-4-carboxamide derivatives as NK-2 and NK-3 receptor antagonists” (priority 1997, published 2001)
# Values joined by “and” are separate entries in the source; they are usually repeats but may differ in a detail not shown here. Equal entries are not always repeated. Structures can show the parent of a compound that is named as a salt.
# Tests used:
# [1] = biological target: T1, human neurokinin-2 receptor (Homo sapiens, UniProt P21452); test: Binding affinity to human NK-2 receptor expressed in CHO cells (inhibition of [125I]-NKA or [3H]-NKA binding); details: human neurokinin-2 receptor expressed in CHO cell lines; read-out: Binding affinity, Ki (nM) hNK-2-CHO
# T1 construct: expressed in transfected cells; host or cells: CHO
# T1 sequence (P21452 1-398): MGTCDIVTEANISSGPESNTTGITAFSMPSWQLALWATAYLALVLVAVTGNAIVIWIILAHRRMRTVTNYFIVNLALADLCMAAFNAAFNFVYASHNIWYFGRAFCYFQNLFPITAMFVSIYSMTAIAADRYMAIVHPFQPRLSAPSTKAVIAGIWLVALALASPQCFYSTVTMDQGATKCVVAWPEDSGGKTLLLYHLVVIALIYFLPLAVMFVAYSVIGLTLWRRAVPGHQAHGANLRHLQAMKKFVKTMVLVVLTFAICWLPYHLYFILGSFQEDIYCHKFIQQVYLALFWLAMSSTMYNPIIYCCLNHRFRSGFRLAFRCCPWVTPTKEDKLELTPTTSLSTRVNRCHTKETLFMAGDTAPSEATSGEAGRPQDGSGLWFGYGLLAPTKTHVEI
# Method: The activity of the compounds of the present invention, as NK-2 ligands, is determined by their ability to inhibit the binding of the radiolabelled NK-2 ligands, [^125I]-NKA or [^3H]-NKA, to human NK-2 receptors (Aharony et al, 1992, Neuropeptide, 23, 121-130).
# The binding assays utilized allow the determination of the concentration of the individual compound required to reduce by 50% the [^125I]-NKA and [^3H]-NKA specific binding to NK2 receptor in equilibrium conditions (IC50).
# Binding assays provide for each compound tested a mean IC50 value of 2-5 separate experiments performed in duplicate or triplicate. […] The NK-2-antagonist activity of the compounds of the present invention is determined by their ability to inhibit human NK-2 receptor-mediated Ca^++ mobilization (Mochizuki et al, 1994, J. Biol. Chem., 269, 9651-9658). Human receptor functional assay allows the determination of the concentration of the individual compound required to reduce by 50% (IC50 values) the Ca^++ mobilization induced by the agonist NKA. In this assay, the compounds of the present invention behave as antagonists.
# [2] = biological target: T2, human neurokinin-3 receptor (Homo sapiens, UniProt P29371); test: Binding affinity to human NK-3 receptor expressed in CHO cells (inhibition of [125I]-[Me-Phe7]-NKB or [3H]-Senktide binding); details: human neurokinin-3 receptor expressed in CHO cell lines; read-out: Binding affinity, Ki (nM) hNK-3-CHO
# T2 construct: expressed in transfected cells; host or cells: CHO
# T2 sequence (P29371 1-465): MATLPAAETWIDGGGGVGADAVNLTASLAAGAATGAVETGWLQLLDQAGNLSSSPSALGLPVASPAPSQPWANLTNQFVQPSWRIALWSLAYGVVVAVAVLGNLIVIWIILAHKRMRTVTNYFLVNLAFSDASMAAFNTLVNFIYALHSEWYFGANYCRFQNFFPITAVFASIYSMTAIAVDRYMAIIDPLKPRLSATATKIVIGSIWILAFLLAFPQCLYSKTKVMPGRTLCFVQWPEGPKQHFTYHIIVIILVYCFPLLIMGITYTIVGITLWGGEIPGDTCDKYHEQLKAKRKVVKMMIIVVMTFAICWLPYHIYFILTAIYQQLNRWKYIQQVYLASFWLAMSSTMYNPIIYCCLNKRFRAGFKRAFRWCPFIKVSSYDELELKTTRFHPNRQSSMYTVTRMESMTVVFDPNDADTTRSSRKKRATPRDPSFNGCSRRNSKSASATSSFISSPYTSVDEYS
# Method: The activity of the compounds of the present invention, as NK3 ligands, is determined by their ability to inhibit the binding of the radiolabelled NK3 ligands, [^125I]-[Me-Phe^7]-NKB or [^3H]-Senktide, to guinea-pig and human NK3 receptors (Renzetti et al, 1991, Neuropeptide, 18, 104-114; Buell et al, 1992, FEBS, 299(1), 90-95; Chung et al, 1994, Biochem. Biophys. Res. Commun., 198(3), 967-972).
# The binding assays utilized allow the determination of the concentration of the individual compound required to reduce by 50% the [^125I]-[Me-Phe^7]-NKB and [^3H]-Senktide specific binding to NK3 receptor in equilibrium conditions (IC50).
# Binding assays provide for each compound tested a mean IC50 value of 2-5 separate experiments performed in duplicate or triplicate. […] The NK3-antagonist activity of the compounds of the present invention is determined by their ability to inhibit senktide-induced contraction of the guinea-pig ileum (Maggi et al, 1990, Br. J. Pharmacol., 101, 996-1000) and rabbit isolated iris sphincter muscle (Hall et al., 1991, Eur. J. Pharmacol., 199, 9-14) and human NK3 receptors-mediated Ca^++ mobilization (Mochizuki et al, 1994, J. Biol. Chem., 269, 9651-9658). Guinea-pig and rabbit in-vitro functional assays provide for each compound tested a mean KB value of 3-8 separate experiments, where KB is the concentration of the individual compound required to produce a 2-fold rightward shift in the concentration-response curve of senktide. Human receptor functional assay allows the determination of the concentration of the individual compound required to reduce by 50% (IC50 values) the Ca^++ mobilization induced by the agonist NKB. In this assay, the compounds of the present invention behave as antagonists.
structure (smiles),measurement,setting,value
CC[C@H](NC(=O)c1c(CN2CCCCC2)c(-c2ccccc2)nc2ccccc12)c1ccccc1 (as salt: HCl) [Example 8],melting point,,140 °C (dec.)
CC[C@H](NC(=O)c1c(CN2CCN(C)CC2)c(-c2ccccc2)nc2ccccc12)c1ccccc1 (as salt: HCl) [Example 11],melting point,,195 to 198 °C
CC[C@H](NC(=O)c1c(CCN2CCN(c3ccccc3)CC2)c(-c2ccccc2)nc2ccccc12)c1ccccc1 (as salt: HCl) [Example 12],melting point,,206 °C (dec.)
CC[C@H](NC(=O)c1c(CCCN2CCN(c3ccccc3)CC2)c(-c2ccccc2)nc2ccccc12)c1ccccc1 (as salt: HCl) [Example 13],melting point,,180 °C (dec.)
CC[C@H](NC(=O)c1c(CN2CCN(C(C)C)CC2)c(-c2ccccc2)nc2ccccc12)c1ccccc1 (as salt: HCl) [Example 20],melting point,,178 to 182 °C
CC[C@H](NC(=O)c1c(CN2CCC[C@@H]2CO)c(-c2ccccc2)nc2ccccc12)c1ccccc1 [Example 5],melting point,,83 °C (dec.)
same,Ki,[1],73.2 nM
same,Ki,[2],0.9 nM
CC[C@H](NC(=O)c1c(CN(C)CCO)c(-c2ccccc2)nc2ccccc12)c1ccccc1 [Example 6],melting point,,167 to 170 °C
same,Ki,[1],65.5 nM
same,Ki,[2],1.2 nM
CC[C@H](NC(=O)c1c(CN2CCCCC2)c(-c2ccccc2)nc2ccccc12)c1ccccc1 [Example 8],Ki,[1],24.1 nM
same,Ki,[2],0.9 nM
"CC[C@H](NC(=O)c1c(CN2CCC3(CC2)OCCO3)c(-c2ccccc2)nc2ccccc12)c1ccccc1 [Example 9, (S)-N-(α-ethylbenzyl)-3-[(1,4-dioxa-8-azaspiro[4.5]decan-8-yl)methyl]-2-phenylquinoline-4-carboxamide]",melting point,,170 to 173 °C
same,Ki,[1],18.2 nM
same,Ki,[2],0.8 nM
CC[C@H](NC(=O)c1c(CN2CCN(C)CC2)c(-c2ccccc2)nc2ccccc12)c1ccccc1 [Example 11],Ki,[1],66.8 nM
same,Ki,[2],4 nM
CC[C@H](NC(=O)c1c(CCN2CCN(c3ccccc3)CC2)c(-c2ccccc2)nc2ccccc12)c1ccccc1 [Example 12],Ki,[1],39 nM
same,Ki,[2],1.9 nM
CC[C@H](NC(=O)c1c(CCCN2CCN(c3ccccc3)CC2)c(-c2ccccc2)nc2ccccc12)c1ccccc1 [Example 13],Ki,[1],3.8 nM
same,Ki,[2],0.3 nM
CC[C@H](NC(=O)c1c(CCCCN2CCN(c3ccccc3)CC2)c(-c2ccccc2)nc2ccccc12)c1ccccc1 [Example 14],melting point,,151 to 153 °C
same,Ki,[1],22.2 nM
same,Ki,[2],1.1 nM
"CC[C@H](NC(=O)c1c(CN2CCC(=O)CC2)c(-c2ccccc2)nc2ccccc12)c1ccccc1 [Example 17, (S)-N-(α-Ethylbenzyl)-3-[(4-oxopiperidin-1-yl)methyl]-2-phenylquinoline-4-carboxamide]",melting point,,> 95 °C
same,Ki,[1],42.7 nM
same,Ki,[2],1.5 nM
"CC[C@H](NC(=O)c1c(CN2CCC(O)CC2)c(-c2ccccc2)nc2ccccc12)c1ccccc1 [Example 18, (S)-N-(α-Ethylbenzyl)-3-[(4-hydroxypiperidin-1-yl)methyl]-2-phenylquinoline-4-carboxamide]",melting point,,203 to 207 °C
same,Ki,[1],44.6 nM
same,Ki,[2],2.3 nM
CC[C@H](NC(=O)c1c(CN2CCN(C(C)C)CC2)c(-c2ccccc2)nc2ccccc12)c1ccccc1 [Example 20],Ki,[1],5.7 nM
same,Ki,[2],1.8 nM
CC[C@H](NC(=O)c1c(CCCN2C(=O)c3ccccc3C2=O)c(-c2ccccc2)nc2ccccc12)c1ccccc1 [Example 21],melting point,,182 to 183 °C
same,Ki,[1],6.4 nM
same,Ki,[2],0.9 nM
CC[C@H](NC(=O)c1c(CCN2CCN(c3cccc(C(F)(F)F)c3)CC2)c(-c2ccccc2)nc2ccccc12)c1ccccc1 [Example 22],melting point,,115 to 117 °C
same,Ki,[1],44.9 nM
same,Ki,[2],2.9 nM
CC[C@H](NC(=O)c1c(CCCN2CCN(c3cccc(C(F)(F)F)c3)CC2)c(-c2ccccc2)nc2ccccc12)c1ccccc1 [Example 23],melting point,,102 to 105 °C
same,Ki,[1],9.7 nM
same,Ki,[2],1.2 nM
CC[C@H](NC(=O)c1c(CCCN2CCN(c3ccc(Cl)cc3)CC2)c(-c2ccccc2)nc2ccccc12)c1ccccc1 [Example 24],melting point,,100 to 105 °C
same,Ki,[1],3.3 nM
same,Ki,[2],0.9 nM
CC[C@H](NC(=O)c1c(CCCN2CCC(c3ccccc3)CC2)c(-c2ccccc2)nc2ccccc12)c1ccccc1 [Example 25],melting point,,75 to 80 °C
same,Ki,[1],1.5 nM
same,Ki,[2],0.5 nM
"CC[C@H](NC(=O)c1c(CN2CCN(Cc3ccccc3)CC2)c(-c2ccccc2)nc2ccccc12)c1ccccc1 [Example 26, (S)-N-(α-ethylbenzyl)-3-[(4-benzylpiperazin-1-yl)methyl]-2-phenylquinoline-4-carboxamide]",melting point,,85 °C (dec.)
same,Ki,[1],1.7 nM
same,Ki,[2],0.4 nM
CC[C@H](NC(=O)c1c(CCN2CCN(c3ccc(Cl)cc3)CC2)c(-c2ccccc2)nc2ccccc12)c1ccccc1 [Example 27],melting point,,100 to 110 °C (dec.)
same,Ki,[1],53.5 nM
same,Ki,[2],2.8 nM
"CC[C@H](NC(=O)c1c(CN2CCNCC2)c(-c2ccccc2)nc2ccccc12)c1ccccc1 [Example 28, (S)-N-(α-Ethylbenzyl)-3-[(piperazin-1-yl)methyl]-2-phenylquinoline-4-carboxamide]",melting point,,94 to 98 °C and 94.5 to 98 °C
CC[C@H](NC(=O)c1c(CCN2CCN(c3ccc(C)cc3)CC2)c(-c2ccccc2)nc2ccccc12)c1ccccc1 [Example 29],melting point,,93 to 96 °C
same,Ki,[1],35.3 nM
same,Ki,[2],2.5 nM
CC[C@H](NC(=O)c1c(CCN2CCN(c3ccc(F)cc3)CC2)c(-c2ccccc2)nc2ccccc12)c1ccccc1 [Example 30],melting point,,96 to 98 °C
same,Ki,[1],27.1 nM
same,Ki,[2],3 nM
CC[C@H](NC(=O)c1c(CN2CCC3(CCCC3)CC2)c(-c2ccccc2)nc2ccccc12)c1ccccc1 [Example 31],melting point,,156 to 160 °C
same,Ki,[1],143 nM
same,Ki,[2],3.9 nM
"CC[C@H](NC(=O)c1c(CN2CC[C@H](O)C2)c(-c2ccccc2)nc2ccccc12)c1ccccc1 [Example 32, (S)-N-(α-ethylbenzyl)-3-[(3-(S)-hydroxy)pyrrolidin-1-ylmethyl]-2-phenylquinoline-4-carboxamide]",melting point,,90 to 95 °C
same,Ki,[1],68.8 nM
same,Ki,[2],3.2 nM
CC[C@H](NC(=O)c1c(CN2CC[C@@H](O)C2)c(-c2ccccc2)nc2ccccc12)c1ccccc1 [Example 33],melting point,,100 to 105 °C
same,Ki,[1],64.8 nM
same,Ki,[2],2.9 nM
CC[C@H](NC(=O)c1c(CCN2CCN(C(C)C)CC2)c(-c2ccccc2)nc2ccccc12)c1ccccc1 [Example 39],Ki,[1],35.6 nM
same,Ki,[2],0.8 nM
